From US5698411A, “Method for determining activity of enzymes in metabolically active whole cells” (priority 1995, dated 1997)
Where “and” joins values, the source holds several entries; their conditions need not be identical. Identical values can stand only once.

How the values were obtained:
Format in all cases: cell-based, human
[1] = test system: metabolically active whole cell; test: substrate panel in normals and HIV + patients, TB infection (Table 4); parameters: unit not given here
Method: A panel of assay compounds are assembled consisting of Ala-aminopeptidase and Lys-aminopeptidase, Dipeptidyl peptidase IV (Ala-Ala)2 rhodamine 110 and Cathepsin D to indicate possible TB infection in AIDS related cases.
A panel Of enzymatic substrates is performed consisting of Ala-aminopeptidase and Lys-aminopeptidase, Dipeptidyl peptidase IV (Ala-Ala)2 rhodamine 110 and Cathepsin D to indicate possible TB infection in AIDS related cases.

[2] = test system: lymphocytes; test: peptidase activity in leukemia and non-leukemia patients, lymphocytes (Table 6C); parameters: unit not given here
Source text: (§1) Artificial intelligence was used to analyze data of cellular enzyme functions, and determine normal and disease states. Peptidases were used to distinguish leukemia from non-leukemia (output pattern). For input patterns lymphocyte and granulocyte cell types were used with aminopeptidases, cathepsins and dipeptidylpeptidase enzyme activities. In this Example, illustrated in Tables 6A-6C, three normals and three leukemia patients were used as known output patterns for the neural network to learn (in practice, the larger the learning set the more accurate unknown prediction will be). Unknowns were then presented to the learned algorithm as shown in the test case examples. Clinical diagnosis was confirmed by physicians. The trained neural network was able to correctly classify the leukemia from the non-leukemia.

[3] = test system: granulocytes; test: peptidase activity in leukemia and non-leukemia patients, granulocytes (Table 6C); parameters: unit not given here
Source text: as §1

[4] = test system: lymphocytes; test: aberrant enzyme activities in febrile children, lymphocytes (Table 7)
[5] = test system: monocytes; test: aberrant enzyme activities in febrile children, monocytes (Table 7)
[6] = test system: granulocytes; test: aberrant enzyme activities in febrile children, granulocytes (Table 7)

## NCCCC[C@H](N)C(=O)Nc1ccc2c(c1)Oc1cc(NC(=O)[C@@H](N)CCCCN)ccc1C21OC(=O)c2ccccc21 [LYS, (H-L-Lys)2 Rho 110 .4TFA]
[1]; HIV + PATIENTS
  MEAN DELTA FL: 7.4
[1]; NORMALS
  MEAN DELTA FL: 10.5
[2]; J4 11/21/91 acute leuk.
  enzyme activity, Lymphs: 0.77
[2]; J19 11/27/91 C L L
  enzyme activity, Lymphs: 0.98
[2]; J22 12/2/91 A M L
  enzyme activity, Lymphs: 0.74
[2]; J22 12/9/91 A M L
  enzyme activity, Lymphs: 1.20
[2]; N192 normal
  enzyme activity, Lymphs: 0.56
[2]; N193 normal
  enzyme activity, Lymphs: 0.52
[2]; N194 normal
  enzyme activity, Lymphs: 0.93
[2]; N197 normal
  enzyme activity, Lymphs: 0.70
[2]; N199 normal
  enzyme activity, Lymphs: 0.33
[2]; N200 normal
  enzyme activity, Lymphs: 0.90
[2]; N202 normal
  enzyme activity, Lymphs: 0.71
[2]; P71 ac. pyelonephritis
  enzyme activity, Lymphs: 0.91
[3]; J22 12/9/91 A M L
  enzyme activity, Grans: 1.90
[3]; N191 normal
  enzyme activity, Grans: 1.20
[3]; N192 normal
  enzyme activity, Grans: 1.20
[3]; N199 normal
  enzyme activity, Grans: 0.95
[4]; P92 Adenitis
  aberrant enzyme activity, LYMPHS: .smallcircle.
[4]; P97 Pyelonephritis
  aberrant enzyme activity, LYMPHS: .smallcircle.
[4]; P103 Viral Syndrome
  aberrant enzyme activity, LYMPHS: .smallcircle.
[5]; P97 Pyelonephritis
  aberrant enzyme activity, MONOS: .smallcircle.
[6]; P103 Viral Syndrome
  aberrant enzyme activity, GRANS: .smallcircle.

## CC(C)[C@H](N)C(=O)N[C@@H](CO)C(=O)Nc1ccc2c(c1)Oc1cc(NC(=O)[C@H](CO)NC(=O)[C@@H](N)C(C)C)ccc1C21OC(=O)c2ccccc21 [VS, (H-L-Val--Ser)2 Rho 110 .2TFA]
[1]; HIV + PATIENTS
  MEAN DELTA FL: 32.5
[1]; NORMALS
  MEAN DELTA FL: 24.6
[2]; J4 11/21/91 acute leuk.
  enzyme activity, Lymphs: 0.05
[2]; J4 12/2/91 A L
  enzyme activity, Lymphs: 0.03
[2]; J4 12/3/91 acute leuk.
  enzyme activity, Lymphs: 0.04
[2]; J5 11/27/91 A M L
  enzyme activity, Lymphs: 0.05
[2]; J19 11/27/91 C L L
  enzyme activity, Lymphs: 0.01
[2]; J22 12/2/91 A M L
  enzyme activity, Lymphs: 0.01
[2]; J22 12/9/91 A M L
  enzyme activity, Lymphs: 0.04
[2]; N191 normal
  enzyme activity, Lymphs: 0.14
[2]; N192 normal
  enzyme activity, Lymphs: 0.08
[2]; N193 normal
  enzyme activity, Lymphs: 0.09
[2]; N194 normal
  enzyme activity, Lymphs: 0.07
[2]; N195 normal
  enzyme activity, Lymphs: 0.06
[2]; N197 normal
  enzyme activity, Lymphs: 0.11
[2]; N199 normal
  enzyme activity, Lymphs: 0.03
[2]; N200 normal
  enzyme activity, Lymphs: 0.06
[2]; N201 normal
  enzyme activity, Lymphs: 0.07
[2]; N202 normal
  enzyme activity, Lymphs: 0.04
[2]; N206 normal
  enzyme activity, Lymphs: 0.28
[2]; P68 tachycardia
  enzyme activity, Lymphs: 0.05
[2]; P69 pancreatic CA
  enzyme activity, Lymphs: 0.18
[2]; P70 cirrhosis/hemobilia
  enzyme activity, Lymphs: 0.04
[2]; P71 ac. pyelonephritis
  enzyme activity, Lymphs: 0.08
[3]; J4 11/21/91 acute leuk.
  enzyme activity, Grans: 0.37
[3]; J4 12/2/91 A L
  enzyme activity, Grans: 0.14
[3]; J4 12/3/91 acute leuk.
  enzyme activity, Grans: 0.23
[3]; J22 12/2/91 A M L
  enzyme activity, Grans: 0.22
[3]; J22 12/9/91 A M L
  enzyme activity, Grans: 0.32
[3]; N191 normal
  enzyme activity, Grans: 0.64
[3]; N192 normal
  enzyme activity, Grans: 0.40
[3]; N193 normal
  enzyme activity, Grans: 0.44
[3]; N194 normal
  enzyme activity, Grans: 0.29
[3]; N195 normal
  enzyme activity, Grans: 0.37
[3]; N197 normal
  enzyme activity, Grans: 0.58
[3]; N199 normal
  enzyme activity, Grans: 0.14
[3]; N200 normal
  enzyme activity, Grans: 0.24
[3]; N201 normal
  enzyme activity, Grans: 0.32
[3]; N202 normal
  enzyme activity, Grans: 0.24
[3]; P68 tachycardia
  enzyme activity, Grans: 0.33
[3]; P69 pancreatic CA
  enzyme activity, Grans: 0.57
[3]; P70 cirrhosis/hemobilia
  enzyme activity, Grans: 0.26
[3]; P71 ac. pyelonephritis
  enzyme activity, Grans: 0.69
[4]; P95 Viral Syndrome
  aberrant enzyme activity, LYMPHS: .smallcircle.
[4]; P96 Viral Syndrome
  aberrant enzyme activity, LYMPHS: .smallcircle.
[4]; P97 Pyelonephritis
  aberrant enzyme activity, LYMPHS: .smallcircle.
[4]; P103 Viral Syndrome
  aberrant enzyme activity, LYMPHS: .smallcircle.
[5]; P96 Viral Syndrome
  aberrant enzyme activity, MONOS: .smallcircle.
[5]; P103 Viral Syndrome
  aberrant enzyme activity, MONOS: .smallcircle.
[6]; P96 Viral Syndrome
  aberrant enzyme activity, GRANS: .smallcircle.
[6]; P97 Pyelonephritis
  aberrant enzyme activity, GRANS: .smallcircle.
[6]; P103 Viral Syndrome
  aberrant enzyme activity, GRANS: .smallcircle.

## C[C@H](N)C(=O)Nc1ccc2c(c1)Oc1cc(NC(=O)[C@H](C)N)ccc1C21OC(=O)c2ccccc21 [ALA, (Ala)2 Rho 110]
[1]; HIV + PATIENTS
  MEAN DELTA FL: 59.0
[1]; NORMALS
  MEAN DELTA FL: 132.0
[2]; J4 11/21/91 acute leuk.
  enzyme activity, Lymphs: 86.00
[2]; J4 12/2/91 A L
  enzyme activity, Lymphs: 68.10
[2]; J4 12/3/91 acute leuk.
  enzyme activity, Lymphs: 74.64
[2]; J5 11/27/91 A M L
  enzyme activity, Lymphs: 92.44
[2]; J19 11/27/91 C L L
  enzyme activity, Lymphs: 47.78
[2]; J22 12/2/91 A M L
  enzyme activity, Lymphs: 84.42
[2]; J22 12/9/91 A M L
  enzyme activity, Lymphs: 83.48
[2]; N191 normal
  enzyme activity, Lymphs: 95.72
[2]; N192 normal
  enzyme activity, Lymphs: 103.31
[2]; N193 normal
  enzyme activity, Lymphs: 100.50
[2]; N194 normal
  enzyme activity, Lymphs: 97.02
[2]; N195 normal
  enzyme activity, Lymphs: 118.81
[2]; N197 normal
  enzyme activity, Lymphs: 96.36
[2]; N199 normal
  enzyme activity, Lymphs: 91.07
[2]; N200 normal
  enzyme activity, Lymphs: 101.38
[2]; N201 normal
  enzyme activity, Lymphs: 106.72
[2]; N202 normal
  enzyme activity, Lymphs: 118.37
[2]; N206 normal
  enzyme activity, Lymphs: 122.71
[2]; P68 tachycardia
  enzyme activity, Lymphs: 1471.10
[2]; P69 pancreatic CA
  enzyme activity, Lymphs: 130.34
[2]; P70 cirrhosis/hemobilia
  enzyme activity, Lymphs: 141.87
[2]; P71 ac. pyelonephritis
  enzyme activity, Lymphs: 109.26
[3]; J4 11/21/91 acute leuk.
  enzyme activity, Grans: 193.43
[3]; J4 12/2/91 A L
  enzyme activity, Grans: 139.53
[3]; J4 12/3/91 acute leuk.
  enzyme activity, Grans: 138.89
[3]; J5 11/27/91 A M L
  enzyme activity, Grans: 194.85
[3]; J19 11/27/91 C L L
  enzyme activity, Grans: 143.11
[3]; J22 12/2/91 A M L
  enzyme activity, Grans: 157.12
[3]; J22 12/9/91 A M L
  enzyme activity, Grans: 157.48
[3]; N191 normal
  enzyme activity, Grans: 177.32
[3]; N192 normal
  enzyme activity, Grans: 154.84
[3]; N193 normal
  enzyme activity, Grans: 178.64
[3]; N194 normal
  enzyme activity, Grans: 164.00
[3]; N195 normal
  enzyme activity, Grans: 221.28
[3]; N197 normal
  enzyme activity, Grans: 188.20
[3]; N199 normal
  enzyme activity, Grans: 157.30
[3]; N200 normal
  enzyme activity, Grans: 171.06
[3]; N201 normal
  enzyme activity, Grans: 206.06
[3]; N202 normal
  enzyme activity, Grans: 201.17
[3]; N206 normal
  enzyme activity, Grans: 232.57
[3]; P68 tachycardia
  enzyme activity, Grans: 276.07
[3]; P69 pancreatic CA
  enzyme activity, Grans: 204.02
[3]; P70 cirrhosis/hemobilia
  enzyme activity, Grans: 236.23
[3]; P71 ac. pyelonephritis
  enzyme activity, Grans: 185.37
[4]; P88 Enteritis
  aberrant enzyme activity, LYMPHS: .smallcircle.
[4]; P89 Viral Stomatitis
  aberrant enzyme activity, LYMPHS: .smallcircle.
[4]; P92 Adenitis
  aberrant enzyme activity, LYMPHS: .smallcircle.
[4]; P97 Pyelonephritis
  aberrant enzyme activity, LYMPHS: .smallcircle.
[4]; P102 UTI
  aberrant enzyme activity, LYMPHS: .smallcircle.
[4]; P103 Viral Syndrome
  aberrant enzyme activity, LYMPHS: .smallcircle.
[5]; P88 Enteritis
  aberrant enzyme activity, MONOS: .smallcircle.
[5]; P89 Viral Stomatitis
  aberrant enzyme activity, MONOS: .smallcircle.
[5]; P92 Adenitis
  aberrant enzyme activity, MONOS: + (>0.25 Increase over normal range)
[5]; P97 Pyelonephritis
  aberrant enzyme activity, MONOS: + (>0.25 Increase over normal range)
[5]; P102 UTI
  aberrant enzyme activity, MONOS: + (>0.25 Increase over normal range)
[5]; P103 Viral Syndrome
  aberrant enzyme activity, MONOS: .smallcircle.
[6]; P88 Enteritis
  aberrant enzyme activity, GRANS: .smallcircle.
[6]; P89 Viral Stomatitis
  aberrant enzyme activity, GRANS: .smallcircle.
[6]; P92 Adenitis
  aberrant enzyme activity, GRANS: + (>0.25 Increase over normal range)
[6]; P97 Pyelonephritis
  aberrant enzyme activity, GRANS: + (>0.25 Increase over normal range)
[6]; P102 UTI
  aberrant enzyme activity, GRANS: .smallcircle.
[6]; P103 Viral Syndrome
  aberrant enzyme activity, GRANS: .smallcircle.

## C[C@H](N)C(=O)NCC(=O)Nc1ccc2c(c1)Oc1cc(NC(=O)CNC(=O)[C@H](C)N)ccc1C21OC(=O)c2ccccc21 [ALA--GLY****]
[1]; HIV + PATIENTS
  MEAN DELTA FL: 39.9 and 29.7
[1]; NORMALS
  MEAN DELTA FL: 48.0 and 31.6

## NCC(=O)N1CCC[C@H]1C(=O)Nc1ccc2c(c1)Oc1cc(NC(=O)[C@@H]3CCCN3C(=O)CN)ccc1C21OC(=O)c2ccccc21 [GLY--PRO*]
[1]; HIV + PATIENTS
  MEAN DELTA FL: 21.4
[1]; HIV + PATIENTS, listed as GLY--PRO****
  MEAN DELTA FL: 18.4
[1]; NORMALS
  MEAN DELTA FL: 50.9
[1]; NORMALS, listed as GLY--PRO****
  MEAN DELTA FL: 46.7

## CC(C)C[C@H](NC(=O)CN)C(=O)Nc1ccc2c(c1)Oc1cc(NC(=O)[C@H](CC(C)C)NC(=O)CN)ccc1C21OC(=O)c2ccccc21 [GL, (H Gly--Leu)2 Rho 110 .2FTA]
[1]; HIV + PATIENTS
  MEAN DELTA FL: 16.3
[1]; NORMALS
  MEAN DELTA FL: 9.5
[4]; P92 Adenitis
  aberrant enzyme activity, LYMPHS: .smallcircle.
[4]; P97 Pyelonephritis
  aberrant enzyme activity, LYMPHS: .smallcircle.
[4]; P103 Viral Syndrome
  aberrant enzyme activity, LYMPHS: .smallcircle.
[5]; P92 Adenitis
  aberrant enzyme activity, MONOS: .smallcircle.
[5]; P97 Pyelonephritis
  aberrant enzyme activity, MONOS: .smallcircle.
[5]; P103 Viral Syndrome
  aberrant enzyme activity, MONOS: .smallcircle.
[6]; P92 Adenitis
  aberrant enzyme activity, GRANS: .smallcircle.
[6]; P103 Viral Syndrome
  aberrant enzyme activity, GRANS: .smallcircle.
